The term inhibition denotes the drop in the measured response relative to a control, in per cent. A word on the Ki: it is a dissociation constant, usually derived from enzyme kinetics or from competition with a known ligand.

In one data set the test system is ddY male mice. The experiment in a line: Mouse locomotor activity. It counts as in vivo. Conditions: po, enhancement of locomotor activity, measured for 3 hours after administration, read-out: Minimum Effective Dose (mg/kg, p.o.). The procedure:
Five ddY male mice having a weight of 19 to 21 g were used for one group. A test compound and theophylline were orally administered to the mice and then the mice were out in an acrylic test cage (length 26 × width 45 × height 25 cm). The amount of locomotor activity of each mouse was measured with Automex II (manufactured by Columbus) for 3 hours after the administration. Test of significance between the control group and the test compound-administered group was performed by the Student's t-test, and enhancement of the locomotor activity was judged. Furthermore, the minimum effective dose showing a significant difference was determined.

Another data set has as its system dd male mice. The experiment in a line: Acute toxicity test. It counts as in vivo. Conditions: oral administration; mortality observed 7 days after the administration. The source says:
Three dd male mice having a weight of 20 ± 1 g were used for one group. A test compound was orally administered to the mice.
The mortality was observed 7 days after the administration to determine the minimum lethal dose (MLD).

For the next data set, the system named is calvaria. The experiment in a line: Inhibitory effect on bone absorption (PTH-stimulated calcium release from cultured calvaria). It is filed as cell-based, mouse. Particulars: test compound 10^-4 M, PTH 10^-8 M; for inhibition at 100 µM: Mus musculus, bone absorption, 96 hours, read-out: Inhibition Rate (%); for Ca Concentration (mg/dl) (n = 6, mean +/- S.E.M.): culture collected after 96 hours; for bone absorption by PTH (result in words): Duncan's test. The procedure:
The calvaria was excised from a newborn dd mouse (5 to 6 days old) under sterile conditions. The calvaria was washed with a modified Dulbecco phosphate buffer physiological saline solution containing neither calcium nor magnesium (a product of Gibco Oriental), and divided into two parts along the center suture.
The culture medium was renewed 48 hours after the start of culturing. For determining the amount of calcium liberated from the bone by the action of PTH (bone absorption), the calcium content in the culture as collected after 96 hours of culturing was measured. The calcium concentration in the culture was measured with Calcium C Test Wako (manufactured by Wako Pure Chemical Industries, Ltd.). The bone absorption rate was calculated using the following equation. The test of significance of the inhibitory effect on bone absorption was performed by the Duncan's multi-weight comparative test. Inhibition rate (%) = [(CP - CD )/(CP - C₀)] × 100 [formula] CD indicates the total calcium concentration in the culture treated with both the test compound and PTH; CP indicates the total calcium concentration in the culture treated with only PTH (control); and C₀ indicates the total calcium concentration in the culture containing neither the test compound nor PTH.

The target of the next data set is T1, Adenosine A₁ receptor (Cavia porcellus, UniProt P47745).
T1 sequence (P47745 1-326): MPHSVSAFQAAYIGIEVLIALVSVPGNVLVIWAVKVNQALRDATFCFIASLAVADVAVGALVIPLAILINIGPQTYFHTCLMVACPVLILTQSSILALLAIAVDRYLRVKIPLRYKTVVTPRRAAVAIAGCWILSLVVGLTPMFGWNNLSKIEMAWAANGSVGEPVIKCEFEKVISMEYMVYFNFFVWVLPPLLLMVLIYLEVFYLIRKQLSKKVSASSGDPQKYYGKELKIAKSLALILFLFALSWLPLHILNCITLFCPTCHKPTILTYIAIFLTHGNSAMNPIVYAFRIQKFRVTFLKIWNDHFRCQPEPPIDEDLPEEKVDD
The experiment in a line: Adenosine A1 receptor binding test (3H-CHA binding). Conditions: for inhibition at 100 µM: read-out: A1 Receptor Inhibition (%) 10^-4 M; for inhibition at 10 µM: read-out: A1 Receptor Inhibition (%) 10^-5 M.

A further data set concerns the target Adenosine A₂ receptor (Rattus norvegicus, UniProt P30543). The experiment in a line: Adenosine A2 receptor binding test (3H-NECA binding). Particulars: for Ratio of Affinity with Receptor (A2 /A1 ): A2 (rat corpus striatum) versus A1 (guinea pig cerebrum); for inhibition at 100 µM: read-out: A2 Receptor Inhibition (%) 10^-4 M; for inhibition at 10 µM: read-out: A2 Receptor Inhibition (%) 10^-5 M.

Adenosine A₂ receptor, sequence (P30543 whole entry): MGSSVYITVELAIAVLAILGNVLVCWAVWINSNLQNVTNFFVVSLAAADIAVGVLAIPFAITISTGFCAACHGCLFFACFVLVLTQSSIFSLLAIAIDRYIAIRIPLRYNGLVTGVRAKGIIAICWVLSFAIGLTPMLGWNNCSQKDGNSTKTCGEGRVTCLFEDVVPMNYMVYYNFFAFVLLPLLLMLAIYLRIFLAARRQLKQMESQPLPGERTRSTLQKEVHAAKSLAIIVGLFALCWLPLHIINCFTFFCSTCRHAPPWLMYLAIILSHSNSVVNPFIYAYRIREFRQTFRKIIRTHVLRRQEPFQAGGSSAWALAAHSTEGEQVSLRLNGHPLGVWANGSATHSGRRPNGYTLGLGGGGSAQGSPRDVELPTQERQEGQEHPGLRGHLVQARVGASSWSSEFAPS

For `Cn1c(=O)c2[nH]cnc2n(C)c1=O` [Theophylline, theophylline, reference compound], in the data set with ddY male mice, the minimal effective dose was determined as 20 mg/kg.
Turning to `CCCn1c(=O)c2[nH]c(/C=C/c3cccs3)nc2n(CCC)c1=O` [Compound 17, 1,3-Dipropyl-8-[2-(E)-(2-thienyl)vinyl]xanthine], the “MLD” value with dd male mice is above 300 mg/kg.
Regarding `COc1cc(/C=C/c2nc3c(c(=O)n(C)c(=O)n3C)n2C)cc(OC)c1OC` [Comparative Compound X, 1,3,7-trimethyl-8-[(E)-3,4,5-trimethoxystyryl]xanthine, reference compound], in the data set with calvaria, the inhibition at 100 µM was determined as 55%; the “Ca Concentration (mg/dl) (n = 6, mean +/- S.E.M.)” value was 10.32 ± 0.13 mg/dL; the “bone absorption by PTH (result in words)” value is reported as “significantly inhibited bone absorption by PTH”.
With `CCCn1c(=O)c2c(nc(/C=C/c3cccs3)n2C)n(CCC)c1=O` [Compound 18, 1,3-Dipropyl-7-methyl-8-[2-(E)-(2-thienyl)vinyl]xanthine], the “MLD” value with dd male mice was above 300 mg/kg.
The same measure, in the same setting: the result for `CCCn1c(=O)c2nc(/C=C/c3ccc(Cl)c(Cl)c3)[nH]c2n(CCC)c1=O` [Compound 7, 8-[(E)-3,4-Dichlorostyryl]-1,3-dipropylxanthine] reads above 300 mg/kg; that for `CCCn1c(=O)c2c(nc(/C=C/c3ccc(Cl)cc3)n2C)n(CCC)c1=O` [Compound 6, 8-[(E)-4-Chlorostyryl]-7-methyl-1,3-dipropylxanthine], above 300 mg/kg.
`CCCn1c(=O)c2c(nc(/C=C/c3ccccc3)n2C)n(CCC)c1=O` [Compound 2, 1,3-Dipropyl-7-methyl-8-(E)-styrylxanthine]: the minimal effective dose with ddY male mice worked out at 1.25 mg/kg. Besides, on Adenosine A₁ receptor, the Ki was 1.4 µM, the inhibition at 100 µM is 82% and the inhibition at 10 µM came to 64%. Further, at Adenosine A₂ receptor, the “Ratio of Affinity with Receptor (A2 /A1 )” value (shortened to “Ratio of Affinity”) is 52, the inhibition at 100 µM turned out to be 96% and the inhibition at 10 µM was 95%.
With `CCCn1c(=O)c2c(nc(/C=C/c3ccc(OC)c(OC)c3)n2C)n(CCC)c1=O` [Compound 12, 8-[(E)-3,4-Dimethoxystyryl]-1,3-dipropyl-7-methylxanthine], the minimal effective dose in the data set with ddY male mice is 0.63 mg/kg. Besides, in the data set on dd male mice, the “MLD” value is above 300 mg/kg. Moreover, on Adenosine A₁ receptor, the inhibition constant Ki came to 3.1 µM, the inhibition at 100 µM is 74% and the inhibition at 10 µM was 61%. Further, on Adenosine A₂ receptor, the inhibition at 100 µM came out at 97% and the inhibition at 10 µM was found to be 96%.
In the case of `C=CCn1c(=O)c2c(nc(/C=C/c3cc(OC)c(OC)c(OC)c3)n2C)n(CC=C)c1=O` [Compound 24, 1,3-Diallyl-7-methyl-8-[(E)-3,4,5-trimethoxystyryl]xanthine], at Adenosine A₁ receptor, the inhibition constant Ki is above 100 µM, the inhibition at 100 µM is 31% and the inhibition at 10 µM was found to be 31%. Also, on Adenosine A₂ receptor, the inhibition at 100 µM stood at 96% and the inhibition at 10 µM is 93%.
As to `CCCn1c(=O)c2c(nc(/C=C/c3ccc(Cl)c(Cl)c3)n2C)n(CCC)c1=O` [Compound 8, 8-[(E)-3,4-Dichlorostyryl]-1,3-dipropyl-7-methylxanthine], the “MLD” value in the data set on dd male mice is on record as above 300 mg/kg.
`CCCn1c(=O)c2nc(/C=C/c3ccccc3)[nH]c2n(CCC)c1=O` [Compound 1, 1,3-Dipropyl-8-(E)-styrylxanthine]: the “MLD” value in the data set with dd male mice is listed as above 300 mg/kg.
In the case of `CCCn1c(=O)c2nc(/C=C/c3ccc(OC)c(OC)c3)[nH]c2n(CCC)c1=O` [Compound 11, 8-[(E)-3,4-Dimethoxystyryl]-1,3-dipropylxanthine], the “MLD” value in the data set with dd male mice is reported as above 300 mg/kg.
Regarding `CCCn1c(=O)c2nc(/C(C)=C/c3ccccc3)[nH]c2n(CCC)c1=O` [Compound 3, 1,3-Dipropyl-8-[(E)-α-methylstyryl]xanthine], in the data set with dd male mice, the “MLD” value was above 300 mg/kg.
For the compound `CCCn1c(=O)c2nc(/C=C/c3ccc(OC)cc3)[nH]c2n(CCC)c1=O` [Compound 9, 1,3-Dipropyl-8-[(E)-4-methoxystyryl]xanthine], in the data set with dd male mice, the “MLD” value was above 300 mg/kg.
Same read-out and setting: the result for `CCCn1c(=O)c2nc(/C=C/c3cc(OC)c(OC)c(OC)c3)[nH]c2n(CCC)c1=O` [Compound 13, 1,3-Dipropyl-8-[(E)-3,4,5-trimethoxystyryl]xanthine] reads above 300 mg/kg; that for `CCCn1c(=O)c2[nH]c(/C=C/c3ccco3)nc2n(CCC)c1=O` [Compound 15, 1,3-Dipropyl-8-[2-(E)-(2-furyl)vinyl]xanthine], above 300 mg/kg.
Consider `CCCn1c(=O)c2c(nc(/C=C/c3cc(OC)c(OC)c(OC)c3)n2C)n(CCC)c1=O` [Compound 14, 1,3-Dipropyl-7-methyl-8-[(E)-3,4,5-trimethoxystyryl]xanthine], for which, in the data set on calvaria, the inhibition at 100 µM was 119%; the “bone absorption inhibition rate compared with Comparative Compound X (result in words)” value was “significantly higher than that of Comparative Compound X”; the “Ca Concentration (mg/dl) (n = 6, mean +/- S.E.M.)” value is 7.66 ± 0.08 ++ mg/dl; the “bone absorption by PTH (result in words)” value is recorded as “significantly inhibited bone absorption by PTH”. Also, the minimal effective dose with ddY male mice was determined as 10 mg/kg. For the same compound, the “MLD” value with dd male mice is recorded as above 300 mg/kg. For the same compound, at Adenosine A₁ receptor, the Ki came to 65 µM, the inhibition at 100 µM came out at 50% and the inhibition at 10 µM came to 30%. For the same compound, at Adenosine A₂ receptor, the “Ratio of Affinity” value turned out to be 4600, the inhibition at 100 µM worked out at 92% and the inhibition at 10 µM was 94%.
`CCCn1c(=O)c2c(nc(/C(C)=C/c3ccccc3)n2C)n(CCC)c1=O` [Compound 4, 1,3-Dipropyl-7-methyl-8-[(E)-α-methylstyryl]xanthine]: the “MLD” value with dd male mice is above 300 mg/kg.
Turning to `CCCn1c(=O)c2c(nc(/C=C/c3ccc(OC)cc3)n2C)n(CCC)c1=O` [Compound 10, 1,3-Dipropyl-8-[(E)-4-methoxystyryl]-7-methylxanthine], in the data set on dd male mice, the “MLD” value is listed as above 300 mg/kg. Besides, on Adenosine A₁ receptor, the affinity, expressed as Ki, was 2 µM; the inhibition at 100 µM turned out to be 86%; the inhibition at 10 µM is 65%. Further, at Adenosine A₂ receptor, the “Ratio of Affinity” value is given as 51, the inhibition at 100 µM amounted to 95% and the inhibition at 10 µM was 95%.
On to `CCCn1c(=O)c2nc(/C=C/c3ccc(Cl)cc3)[nH]c2n(CCC)c1=O` [Compound 5, 8-[(E)-4-Chlorostyryl]-1,3-dipropylxanthine], for which, in the data set on dd male mice, the “MLD” value is recorded as above 300 mg/kg.

The values above are taken from patent EP0559893A1, “XANTHINE DERIVATIVE” (priority 1990, dated 1992).
